# Patent publication US6235751A, “Quinolizine carboxylic acid derivatives” (Korean Research Institute of Chemical Technology, priority 1997, dated 2001)
# Like-named read-outs stand apart in the source and are kept apart here.
# Assays:
# [1] = test system: Streptococcus pyogenes A 308; test: Antibacterial activity in vitro (MIC, two-fold agar dilution); type: cell-based; settings: read-out: Minimal Inhibitory Concentration (MIC)
# Text: (§1) Test 1. Antibacterial activity in vitro
# 1. Streptococcus pyogenes A 308
# [2] = test system: Klebsiella aerogenes 1552E; test: as above; settings: 18 h, read-out: Minimal Inhibitory Concentration (MIC)
# [3] = test system: calf thymus topoisomerase II; test: Inhibition of topoisomerase II enzyme activity; type: biochemical; design: unit not given here; settings: concentration to inhibit the enzyme activity of topoisomerase II (calf thymus)
# Text: (§2) Test 2. Selectivity Index
# [4] = test system: Streptococcus pyogenes A 77; test: Antibacterial activity in vitro (MIC, two-fold agar dilution); type: cell-based; settings: read-out: Minimal Inhibitory Concentration (MIC)
# Text: as §1
# 2. Streptococcus pyogenes A 77
# [5] = test system: Staphylococcus aureus 503; test: as above; settings: Staphylococcus aureus, 503, 18 h, read-out: Minimal Inhibitory Concentration (MIC)
# [6] = test system: Escherichia coli DC 2; test: as above; type: cell-based; settings: DC2, Muller Hinton agar, 10^7 CFU/ml, 37° C., 18 hours, read-out: Minimal Inhibitory Concentration (MIC)
# Text: as §1
# [7] = test system: Escherichia coli DC 0; test: as above; type: cell-based; settings: read-out: Minimal Inhibitory Concentration (MIC)
# Text: as §1
# [8] = test system: Staphylococcus aureus 285; test: as above; settings: Staphylococcus aureus, 285, 18 h, read-out: Minimal Inhibitory Concentration (MIC)
# [9] = test system: Klebsiella oxytoca 1082E; test: as above; settings: 18 h, read-out: Minimal Inhibitory Concentration (MIC)
# [10] = test system: Pseudomonas aeruginosa 9027; test: as above; settings: Pseudomonas aeruginosa, 9027, 18 h, read-out: Minimal Inhibitory Concentration (MIC)
# [11] = test system: Staphylococcus aureus SG 511; test: as above; type: cell-based; settings: SG511, Muller Hinton agar, 10^7 CFU/ml, 37° C., 18 hours, read-out: Minimal Inhibitory Concentration (MIC)
# Text: as §1
# 4. Staphylococcus aureus SG 511
# [12] = test system: Pseudomonas aeruginosa 1771; test: as above; type: cell-based; settings: Muller Hinton agar, 10^7 CFU/ml, 37° C., 18 hours, read-out: Minimal Inhibitory Concentration (MIC)
# Text: as §1
# 14. Pseudomonas aeruginosa 1771
# [13] = test system: Salmonella typhimurium; test: as above; settings: Salmonella enterica, 18 h, read-out: Minimal Inhibitory Concentration (MIC)
# [14] = test system: Escherichia coli TEM; test: microbe, parasite or virus in culture; settings: 18 h, read-out: Minimal Inhibitory Concentration (MIC)
# [15] = test system: Escherichia coli 078; test: Antibacterial activity in vitro (MIC, two-fold agar dilution); settings: Escherichia coli, 078, 18 h, read-out: Minimal Inhibitory Concentration (MIC)
# [16] = test system: Pseudomonas aeruginosa 1592E; test: as above; type: cell-based; settings: Muller Hinton agar, 10^7 CFU/ml, 37° C., 18 hours, read-out: Minimal Inhibitory Concentration (MIC)
# Text: as §1
# 13. Pseudomonas aeruginosa 1592 E
# [17] = molecular target: gyrase of E. coli (Escherichia coli, UniProt P0AES4+P0AES6); test: Inhibition of gyrase enzyme activity; type: biochemical; design: unit not given here; settings: concentration to inhibit the enzyme activity of gyrase of E. coli
# Chain of gyrase of E. coli (P0AES4 whole entry, one chain of several): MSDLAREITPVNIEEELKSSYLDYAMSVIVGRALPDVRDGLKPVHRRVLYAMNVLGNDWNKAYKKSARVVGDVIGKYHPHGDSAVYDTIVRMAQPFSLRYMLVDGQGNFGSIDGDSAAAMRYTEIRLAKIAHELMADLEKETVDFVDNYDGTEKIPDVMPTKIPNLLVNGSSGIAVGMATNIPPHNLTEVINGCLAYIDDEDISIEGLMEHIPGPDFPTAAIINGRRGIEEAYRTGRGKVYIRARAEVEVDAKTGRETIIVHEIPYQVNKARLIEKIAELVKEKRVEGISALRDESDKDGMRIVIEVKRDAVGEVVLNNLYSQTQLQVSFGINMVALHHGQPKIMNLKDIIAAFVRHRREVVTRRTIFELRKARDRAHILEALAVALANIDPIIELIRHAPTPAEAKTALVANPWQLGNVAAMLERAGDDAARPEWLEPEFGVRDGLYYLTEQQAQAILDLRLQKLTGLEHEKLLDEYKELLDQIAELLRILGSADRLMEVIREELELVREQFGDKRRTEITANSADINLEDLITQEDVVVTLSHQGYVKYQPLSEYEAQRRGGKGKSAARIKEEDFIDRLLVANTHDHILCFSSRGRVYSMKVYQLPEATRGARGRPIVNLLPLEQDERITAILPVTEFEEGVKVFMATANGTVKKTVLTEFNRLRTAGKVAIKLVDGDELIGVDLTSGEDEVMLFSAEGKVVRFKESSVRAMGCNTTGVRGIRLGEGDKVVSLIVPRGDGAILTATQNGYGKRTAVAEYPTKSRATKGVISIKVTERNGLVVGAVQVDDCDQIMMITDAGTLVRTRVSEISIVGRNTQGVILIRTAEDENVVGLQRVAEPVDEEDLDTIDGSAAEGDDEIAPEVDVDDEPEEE
# Text: as §2
# [18] = test system: Escherichia coli 1507E; test: Antibacterial activity in vitro (MIC, two-fold agar dilution); settings: 18 h, read-out: Minimal Inhibitory Concentration (MIC)
# [19] = test system: Streptococcus faecium MD 8b; test: as above; type: cell-based; settings: Enterococcus faecium, MD8B, read-out: Minimal Inhibitory Concentration (MIC)
# Text: as §1
# 3. Streptococcus faecium MD 8b
# [20] = test system: gyrase of E. coli and calf thymus topoisomerase II; settings: calculated by equation 1 from IC100, Topo II and IC100, Gyrase
# Description: as §2
# Selectivity indexes of the compounds of the present invention and control compounds were measured using gyrase purified from of E. coli and calf thymus topoisomerase II obtained from Topogen. Co.
# The selectivity index (S.I.) was calculated by the equation 1. [formula]
# wherein, IC100, Topo II is the concentration of a compound to inhibit the enzyme activity of topoisomerase II and IC100, Gyrase is the concentration of a compound to inhibit the enzyme activity of gyrase of E. coli.
# [21] = test system: Enterobacter cloacae P99; test: microbe, parasite or virus in culture; settings: P99, 18 h, read-out: Minimal Inhibitory Concentration (MIC)
# Text: as §1
# 19. Enterobacter cloacae P 99
# [22] = test system: Enterobacter cloacae 1321E; test: microbe, parasite or virus in culture; settings: 18 h, read-out: Minimal Inhibitory Concentration (MIC)
# Text: as §1
# [23] = Streptococcus pyogenes, A308, 18 h
# [24] = Streptococcus pyogenes, A77, 18 h
SMILES,"MIC [1, 23] [µg/mL]",MIC [2] [µg/mL],"IC100, Topo II [3]","MIC [4, 24] [µg/mL]",MIC [5] [µg/mL],MIC [6] [µg/mL],"MIC ([7]; Escherichia coli, DC0, 18 h) [µg/mL]",MIC [8] [µg/mL],MIC [9] [µg/mL],MIC [10] [µg/mL],MIC [11] [µg/mL],MIC [12] [µg/mL],MIC [13] [µg/mL],MIC [14] [µg/mL],MIC [15] [µg/mL],MIC [16] [µg/mL],"IC100, Gyrase [17]",MIC [18] [µg/mL],MIC ([19]; 18 h) [µg/mL],S.I. (Selectivity Index) [20],also measured
"O=C(O)c1cn(C2CC2)c2cc(N3CCNCC3)c(F)cc2c1=O [Ciprofloxacin, 1-cyclopropyl-6-fluoro-7-(piperazin-1-yl)-4-oxoquinoline-3-carboxylic acid, reference compound]",3.12,0.013,500,0.781,0.391,0.049,0.195,0.781,< 0.002,0.195,0.195,0.195,0.007,0.007,0.004,0.195,0.5,0.007,0.391,–,–
"Cc1c(N2CC3=CCCN[C@H]3C2)c(F)cn2c(=O)c(C(=O)O)cc(C3CC3)c12 [Example 1, 8-{[(R)-2,8-diazabicyclo[4.3. 0]non-5-en]-8-yl}-1-cyclopropyl-7-fluoro-9-methyl-4-oxo-4H-quinolizine-3-carboxylic acid]",–,0.013,"1,000",–,0.007,0.013,–,0.013,< 0.002,0.195,0.007,0.098,0.004,0.007,< 0.002,0.098,0.5,0.007,–,"2,000","MIC ([1]; A308, Streptococcus pyogenes A 308, Muller Hinton agar, 10^7 CFU/ml, 37° C., 18 hours): 0.049 µg/mL; MIC ([4]; A77, Streptococcus pyogenes A 77, Muller Hinton agar, 10^7 CFU/ml, 37° C., 18 hours): 0.025 µg/mL; MIC ([7]; DC0, Escherichia coli DC 0, Muller Hinton agar, 10^7 CFU/ml, 37° C., 18 hours): 0.049 µg/mL; MIC [21]: 0.004 µg/mL; MIC [22]: < 0.002 µg/mL; MIC ([19]; Streptococcus faecium MD 8b, Muller Hinton agar, 10^7 CFU/ml, 37° C., 18 hours): 0.025 µg/mL"
"Cc1c(N2CC(CN)C(OCc3cccnc3)C2)c(F)cn2c(=O)c(C(=O)O)cc(C3CC3)c12 (stereo not shown) [Example 16, 8-{[3-(3-pyridylmethyl)oxy-4-aminomethylpyrrolidine]-1-yl}-1-cyclopropyl-7-fluoro-9-methyl-4-oxo-4H-quinolizine-3-carboxylic acid]",0.098,0.013,"1,000",0.049,0.013,0.013,0.098,0.013,< 0.002,0.195,0.013,0.195,0.004,0.007,< 0.002,0.195,0.5,0.013,0.049,"2,000",MIC [21]: 0.004 µg/mL; MIC [22]: < 0.002 µg/mL
"CC1CN(c2c(F)c(N)c3c(=O)c(C(=O)O)cn(C4CC4)c3c2F)CC(C)N1 (stereo not shown) [Sparfloxacin, 1-cyclopropyl-5-amino-6,8-difluoro-7-(3,5-dimethylpiperazin-1-yl)-4-oxoquinoline-3-carboxylic acid, reference compound]",0.391,0.025,500,0.195,0.049,0.025,0.195,0.049,< 0.002,0.781,0.098,0.781,0.007,0.013,0.004,0.781,1.0,0.025,0.391,500,MIC [21]: 0.007 µg/mL; MIC [22]: 0.004 µg/mL
